pEC50: −log10 of the molar value. Entries after “also recorded” stand apart in the source; their conditions may differ.
Experiments:
IR HepG2 cells = assay: Glucose consumption assay in IR HepG2 cells; assay type: cell-based, Human; conditions: for pEC50: Homo sapiens, insulin-resistant HepG2 cells, 24 h incubation with compound, read-out: EC50, effects on glucose consumption in IR HepG2 cells; for Antidiabetic activity (glucose consumption) compared with metformin, in words: IR HepG2 cells, comparison with metformin
Experimental: The compounds were dissolved in DMSO as stock. The final solution was 1:1,000 dilution of the stock in DMEM.
Human HepG2 cells were cultured in 96-well cluster plates, after achieving confluence, 10^−[…] insulin was treated for 36 h in serum-free and phenol red-free high-glucose DMEM. After this incubation, the cells were washed four times with high-glucose DMEM ([…]) and twice with phosphate-buffered saline. The cells were added to serum-free and phenol red-free high-glucose DMEM containing the various test compounds at different concentrations, incubated for 24 h, and then glucose content in the culture medium was measured using a glucose assay kit.
The enhancement ratio of glucose consumption (GC) was calculated as follows: GC %=(GC treatment group−GC of control group)/GC of control group×100.
The potencies of the products were expressed as median effective concentration (EC50) values.
All data were presented as the means±SD. SPSS10.0 was used for statistical analysis. Statistical significance was at a level of 5% (p<0.05).

GLUT4 = assay: GLUT4myc translocation (cell surface GLUT4myc density, ELISA) in L6-GLUT4myc skeletal muscle cells; assay type: cell-based, rat; conditions: for Stimulation of GLUT4myc translocation, in words: L6-GLUT4myc muscle cells, 24 h incubation; for Effect on GLUT4 translocation compared with insulin: L6-GLUT4myc cells, insulin 100 nM positive control
From the text: GLUT4 is the main glucose transporter in skeletal muscle. In the basal state, the majority of GLUT4 locate in vesicles of cytoplasma. In response to insulin, GLUT4 translocates to the cell membrane, therefore transport more glucose into cell. The rate of glucose transport is the rate-limiting step of glucose metabolism in skeletal muscle. […] In order to measure GLUT4 translocation, we use stable over expressing GLUT4myc rat muscle cell line, L6-GLUT4myc. The amount of GLUT4 on intact cell membrane was measured by ELISA with anti-myc antibody and HRP-conjugated secondary antibody. The OD value was detected at 492 nm.
The tested compounds were dissolved in DMSO as stock. The final solution was 1:1,000 dilution of the stock in low glucose DMEM.
The cells were treated with each compound at 2 to 5 different concentrations with triplicate in each group. The control group was treated with 0.1% DMSO. The blank group had no treatment. Insulin was used as positive control.
Myoblasts were cultured and differentiated into myotubes. Cells were serum starved for 4 hours, then incubated with different compounds at different concentrations for 24 hours or with 100 nM insulin for 20 min. Then cells were washed 3 times with ice-cold phosphate-butfered saline (PBS) supplemented with 1 mM Ca2+ and 1 mM Mg2+(PBS+), fixed with 3% (v/v) paraformaldehyde (PFA) in PBS+ for 10 min at 4° C., then 20 min at room temperature. The cells were washed twice with PBS+, quenched 10 min with 100 mM glycine in PBS+, blocked 10 min with ice-cold 5% (v/v) milk in PBS+, and reacted with polyclonal anti-myc antibody (1:250) for 1 hour. After washing 6 times with PBS+, cells reacted with HRP-bound goat anti-rabbit secondary antibody (1:5000) for 1 hour. The cells were washed 6 times with PBS+, and incubated with 1.0 ml OPD reagent and allowed to develop for 10-20 min. The reaction was stopped with 0.25 ml per well of 3 M HCl. Supernatants were collected and absorbance was measured at 492 nm. Background absorbance obtained in the absence of anti-myc antibody was subtracted from all values.
All data were presented as the means±SD. SPSS16.0 was used for statistical analysis. Data sets of more than two groups were compared using analysis of variance (One-Way ANOVA). Statistical significance was at a level of 5% (p<0.05).

AMPK = assay: Phosphorylation of AMPK by western blotting in HepG2 cells; assay type: cell-based, Human; conditions: 2 h incubation, western blot
Experimental: (§1) In this section, Western Blotting was used to assay the effect of these flavonoids on the phosphorylation of AMPK and ACC in HepG2 cells to illustrate the relationship between the mechanism of the flavonoids on glucose uptake and lipid metabolism and APMK signal pathway.
(§2) Whole cell lysate preparation: After serum-starving HepG2 cells, the cells were incubated with the flavonoids for 2 h, and then washed twice with PBS. Next, pre-chilled RIPA lysis buffer was added for 20 min at 4° C. The lysates were centrifuged at 13,000 rpm/min for 10 min at 4° C., and the supernatants were used for determination of total protein content. Forty micrograms of protein from the supernatant was aliquoted and its volume was adjusted to thirty microliters using deionized water and loading buffer. Lastly, the protein samples were heated at 65° C. for 15 min.
(§3) Western blot analysis: The samples were electrophoresed on 7.5% SDS-polyacrylamide gels, transferred to polyvinylidene fluoride membranes, blocked for 1 h in 5% (w/v) bovine serum albumin, and then incubated with primary antibodies overnight at 4° C. The membranes were washed three times with TBST and incubated with appropriate secondary antibodies conjugated to horse-radish peroxidase for 1 h at room temperature. The immunoreactive bands were detected using chemiluminescent reagent and autoradiographic film.

ACC = assay: Phosphorylation of ACC by western blotting in HepG2 cells; assay type: cell-based, Human; conditions: 2 h incubation, western blot
Experimental: as §1, §2, §3

Row | pEC50 (IR HepG2 cells) | Compound | Antidiabetic activity (glucose consumption) compared with metformin, in words (IR HepG2 cells) | other results
1 | 6.43 | O=C(/C=C/c1ccc(O)cc1)COc1c(-c2ccc(O)cc2)oc2cc(O)cc(O)c2c1=O [Compound I-1, 3-O-[(E)-4-(4-Hydroxyphenyl)-2-oxobut-3-en-1-yl] kaempferol] | comparable activity with that of metformin | 
2 | 6.83 | COc1ccc(/C=C/C(=O)COc2c(-c3ccc(O)cc3)oc3cc(O)cc(O)c3c2=O)cc1 [Compound I-3, 3-O-[(E)-4-(4-Methoxyphenyl)-2-oxobut-3-en-1-yl] kaempferol] | comparable activity with that of metformin; also recorded: significantly superior to that of metformin | Stimulation of GLUT4myc translocation, in words (GLUT4): significantly stimulate GLUT4myc translocation
3 | 7.38 | CCOc1ccc(/C=C/C(=O)COc2c(-c3ccc(O)cc3)oc3cc(O)cc(O)c3c2=O)cc1 [Compound I-4, 3-O-[(E)-4-(4-Ethoxyphenyl)-2-oxobut-3-en-1-yl] kaempferol] | comparable activity with that of metformin; also recorded: significantly superior to that of metformin | 
4 | 6.33 | O=C(/C=C/c1ccccc1)COc1c(-c2ccc(O)cc2)oc2cc(O)cc(O)c2c1=O [Compound I-5, 3-O-[(E)-(2-Oxo-4-phenylbut-3-en-1-yl)] kaempferol] |  | 
5 | 8.00 | Cc1ccc(/C=C/C(=O)COc2c(-c3ccc(O)cc3)oc3cc(O)cc(O)c3c2=O)cc1 [Compound I-6, 3-O-[(E)-(2-Oxo-4-(p-tolyl)but-3-en-1-yl)] kaempferol] | comparable activity with that of metformin; also recorded: significantly superior to that of metformin | 
6 | 5.29 | COc1ccc(/C=C/C(=O)COc2c(-c3ccc(O)cc3)oc3cc(O)cc(O)c3c2=O)cc1O [Compound I-7, 3-O-[(E)-4-(3-Hydroxy-4-methoxyphenyl)-2-oxobut-3-en-1-yl]kaempferol] |  | 
7 | 5.21 | COc1cc(/C=C/C(=O)COc2c(-c3ccc(O)cc3)oc3cc(O)cc(O)c3c2=O)ccc1O [Compound I-8, 3-O-[(E)-4-(3-Methoxy-4-hydroxyphenyl-)-2-oxobut-3-en-1-yl]kaempferol] |  | 
8 | 7.89 | CC(C)(C)c1ccc(/C=C/C(=O)COc2c(-c3ccc(O)cc3)oc3cc(O)cc(O)c3c2=O)cc1 [Compound I-9, 3-O-[(E)-4-(4-(tert-Butyl)phenyl)-2-oxobut-3-en-1-yl] kaempferol] | comparable activity with that of metformin; also recorded: significantly superior to that of metformin | 
9 | 7.82 | CC(C)c1ccc(/C=C/C(=O)COc2c(-c3ccc(O)cc3)oc3cc(O)cc(O)c3c2=O)cc1 [Compound I-10, 3-O-[(E)-4-(4-Isopropylphenyl)-2-oxobut-3-en-1-yl] kaempferol] | comparable activity with that of metformin; also recorded: significantly superior to that of metformin | Stimulation of GLUT4myc translocation, in words (GLUT4): significantly stimulate GLUT4myc translocation
10 | 5.45 | O=C(/C=C/c1ccc(O)c(Cl)c1)COc1c(-c2ccc(O)cc2)oc2cc(O)cc(O)c2c1=O [Compound I-11, 3-O-[(E)-4-(3-Chloro-4-hydroxyphenyl)-2-oxobut-3-en-1-yl] kaempferol] |  | 
11 | 8.52 | N#Cc1ccc(/C=C/C(=O)COc2c(-c3ccc(O)cc3)oc3cc(O)cc(O)c3c2=O)cc1 [Compound I-12, 3-O-[(E)-4-(4-Cyanophenyl)-2-oxobut-3-en-1-yl] kaempferol] | comparable activity with that of metformin; also recorded: significantly superior to that of metformin; also recorded: strongest antidiabetic activity; also recorded: greater than that of marketed drug metformin | Effect on GLUT4 translocation compared with insulin (GLUT4; 2 μg/ml): higher effect on GLUT4 translocation than insulin; also recorded: strongest effect on promoting glucose transporter 4 translocation than insulin; Effect on GLUT4 translocation compared with insulin (GLUT4; 5 μg/ml): higher effect on GLUT4 translocation than insulin; also recorded: strongest effect on promoting glucose transporter 4 translocation than insulin; Stimulation of GLUT4myc translocation, in words (GLUT4): strongest effect; also recorded: significantly stimulate GLUT4myc translocation; Phosphorylation of AMPK (AMPK): significantly stimulate the phosphorylation; Phosphorylation of ACC (ACC): significantly stimulate the phosphorylation
12 | 6.41 | O=C(/C=C/c1ccc(Br)cc1)COc1c(-c2ccc(O)cc2)oc2cc(O)cc(O)c2c1=O [Compound I-13, 3-O-[(E)-4-(4-Bromophenyl)-2-oxobut-3-en-1-yl] kaempferol] |  | 
13 | 6.17 | O=C(/C=C/c1ccc(F)cc1)COc1c(-c2ccc(O)cc2)oc2cc(O)cc(O)c2c1=O [Compound I-14, 3-O-[(E)-4-(4-Fluorophenyl)-2-oxobut-3-en-1-yl] kaempferol] |  | Stimulation of GLUT4myc translocation, in words (GLUT4): significantly stimulate GLUT4myc translocation
14 | 5.97 | O=C(/C=C/c1ccc(Cl)cc1)COc1c(-c2ccc(O)cc2)oc2cc(O)cc(O)c2c1=O [Compound I-15, 3-O-[(E)-4-(4-Chlorophenyl)-2-oxobut-3-en-1-yl] kaempferol] |  | 
15 | 5.59 | O=C(/C=C/c1ccc(Cl)c(Cl)c1)COc1c(-c2ccc(O)cc2)oc2cc(O)cc(O)c2c1=O [Compound I-16, 3-O-[(E)-4-(3,4-Dichlorophenyl)-2-oxobut-3-en-1-yl] kaempferol] |  | 
16 | 6.57 | CN(C)C(=N)N=C(N)N [metformin, reference compound] |  | 

Row | Compound | pEC50 (IR HepG2 cells) | Antidiabetic activity (glucose consumption) compared with metformin, in words (IR HepG2 cells) | other results
17 | O=C(/C=C/c1ccc(OCc2ccccc2)cc1)COc1c(-c2ccc(O)cc2)oc2cc(O)cc(O)c2c1=O [Compound I-2, 3-O-[(E)-4-(4-(Benzyloxyphenyl))-2-oxobut-3-en-1-yl] kaempferol] | 6.18 |  | Stimulation of GLUT4myc translocation, in words (GLUT4): significantly stimulate GLUT4myc translocation
